Measurements from patent publication US20200163984A1, “USE OF ISOVALERYL SPIRAMYCIN I, II AND/OR III IN MANUFACTURING MEDICAMENT FOR TREATING AND/OR PREVENTING TUMOR, AND MEDICAMENT” (SHENYANG FUYANG PHARMACEUTICAL TECHNOLOGY CO., LTD., priority 2017, published 2020).

What was measured:
[1] = system: transplanted tumor of human non-small cell lung cancer cell H1299; conditions: H1299; 30 mg/kg i.g. 30 days
Experimental: (§1) Then cell concentration was adjusted to 1×10^7/ml with matrigel, then each nude mouse was inoculated subcutaneously with 0.2 ml of cells at its right armpit and recorded as the first day of inoculation. When the tumor grows to be greater than or equal to 100 mm^3, the mice were randomly divided into 11 groups with 6 mice in each group: isovaleryl spiramycin I groups with doses of 25, 50 and 100 mg/kg, isovaleryl spiramycin II groups with doses of 25, 50 and 100 mg/kg, and isovaleryl spiramycin III groups with doses of 25, 50 and 100 mg/kg. Each group was continuously administered intragastrically for 30 days with a dose of 20 ml/kg. The mice were sacrificed the next day after drug withdrawal and the indicators were tested. The long diameter and short diameter of the tumor, and the body weight of each mouse were recorded every 3 days from drug administration to nude mouse sacrifice.
(§2) The body weight of the nude mice and the long diameter (a) and short diameter (b) of the transplanted tumor were measured every 3 days, and the tumor volume (v), relative tumor volume (RTV) and relative tumor proliferation rate (T/C) are calculated respectively according to the following formulas, wherein V=a×b^2/2; RTV=V/V0 (V0 is the tumor volume before administration, V is the tumor volume before sacrifice), and T/C (%)=treatment group RTV/model control group RTV×100%.
(§3) Each mouse was weighed and sacrificed. After the tumor was completely stripped off from the body of the mouse, the non-tumor tissues such as blood stains and fat were removed to weigh the tumor and calculate the tumor growth inhibition rate. The average tumor weight of each group of mice is used as an indicator of efficacy. Tumor growth inhibition rate (%)=(1−the average tumor weight of the treatment group/the average tumor weight of the model group)×100%.

[2] = system: transplanted tumor of human lymphoma cell U937; assay: U937 transplanted tumor in nude mice; conditions: U937 nude mice, 30 mg/kg
Experimental: as §1, with “U937 cells in a logarithmic growth phase were taken and subjected to a trypan blue exclusion experiment showing that the cell viability was more than 95%, then the cells were subjected to trypsinization, centrifugation, and supernatant removal. Then” for “Then”, “group: a model group, a cyclophosphamide group,” for “group:”
as §2, §3

[3] = system: transplanted tumor of mouse Lewis lung cancer; assay: Transplanted tumor of mouse Lewis lung cancer
Experimental: Lewis lung cancer cells were cultured in a RPMI 1640 culture medium containing 10% fetal bovine serum at 37° C. in a 5% CO2 incubator. The cells in the logarithmic growth phase were subjected to trypsinization with 0.25% trypsin, then the cells were collected to be centrifugated to remove the obtained supernatant, then were washed twice with sterile normal saline. […] The Lewis cells were adjusted to 1×10^7/mL in concentration and stored in ice water. 75% ethanol was used to disinfect the skin under the right armpits of the mice, and each C57BL/6 mouse was soon inoculated subcutaneously with 0.2 ml of the cells at its right armpit.
In the Lewis lung cancer model, the mice inoculated with the tumor were randomly divided into groups with 10 mice in each group the next day of inoculation. The groups included: a model control group, a positive drug cyclophosphamide control group (CTX, 30 mg/kg), isovaleryl spiramycin I groups with doses of 13, 26 and 52 mg/kg; isovaleryl spiramycin II groups with doses of 13, 26 and 52 mg/kg; isovaleryl spiramycin III groups with doses of 13, 26 and 52 mg/kg. Each group was continuously administered intragastrically for 15 days with a dose of 20 ml/kg.
The tumor-bearing mice were weighed and sacrificed the next day after the last administration. The subcutaneous tumors were dissected and weighed. The average tumor weight of each group is calculated, and the tumor inhibition rate is calculated.
Tumor inhibition rate=(1−T/C)×100%
T: average tumor weight of the drug-administered group; C: average tumor weight of the blank control group.

[4] = dose 30 mg/kg, title prints KM mouse H22 cells

O=P1(N(CCCl)CCCl)NCCCO1 (stereo not shown) [Cyclophosphamide, cyclophosphamide, reference compound]
Body Weight (d 1) [1]: 21.83 ± 0.33 g
Body Weight (d 30) [1]: 23.72 ± 2.41 g
Inhibition Rate (tumor growth inhibition rate) [1]: 78.00%
Relative Tumor Proliferation Rate (T/C) [1]: 22.72%
Relative Tumor Volume (RTV) [1]: 2.91 ± 0.95
Tumor Volume (d 1) [1]: 135.46 ± 16.48 mm3
Tumor Volume (d 30) [1]: 384.21 ± 106.99 mm3
Tumor Weight [1]: 0.38 ± 0.08 g
Inhibition Rate (%) [2]: 65.11%
Relative Tumor Proliferation Rate (T/C) [2]: 35.44%
Relative Tumor Volume (RTV) [2]: 6.04 ± 1.26
Tumor Weight [2]: 0.68 ± 0.12 g
Body Weight (g) (d1) ([2]; d1): 21.00 ± 0.72 g
Tumor Volume (mm3) (d 1) ([2]; d1): 125.00 ± 32.61 mm3
Body Weight (g) (d30) ([2]; d30): 19.72 ± 0.95 g
Tumor Volume (mm3) (d30) ([2]; d30): 722.72 ± 55.32 mm3
Inhibition Rate (%) ([3]; dose 30 mg/kg): 76.43%
Tumor Weight ([3]; dose 30 mg/kg): 0.38 ± 0.07 g
Body Weight (g) (d1) ([3]; dose 30 mg/kg, d 1): 19.62 ± 1.01 g
Tumor Volume (mm3) (d 1) ([3]; dose 30 mg/kg, d 1, title prints KM mouse H22 cells): 104.35 ± 30.89 mm3
Body Weight (g) (d 15) ([3]; dose 30 mg/kg, d 15): 21.38 ± 0.67 g
Tumor Volume (mm3) (d30) ([3]; dose 30 mg/kg, d 30, title prints KM mouse H22 cells): 371.39 ± 112.68 mm3
Relative Tumor Proliferation Rate (T/C) [3, 4]: 24.55
Relative Tumor Volume (RTV) [3, 4]: 3.93 ± 1.86
tumor inhibition rate ([3]; mouse Lewis lung cancer, CTX 30 mg/kg i.g. 15 days): 76.43%
